Data reported in patent US20230076646A1, “HERBICIDE COMBINATIONS COMPRISING GLUFOSINATE AND SULFENTRAZONE” (BASF SE, priority 2020, published 2023).

Key:
Experiment in all cases: Greenhouse post-emergence weed control, percent injury vs untreated control
Settings in all cases: 504 h
[1] = system: Amaranthus Palmerii (AMAPA); format: in vivo, Amaranthus palmeri
Method: (§1) Glufosinate was used as a commercial SL formulation containing 280 g ai/l of glufosinate (Liberty 280 SL, BASF). While the PPO herbicide Spartan containing 480 g ai/l sulfentrazone was used (Spartan 480 SC, FMC) formulation. • The evaluation for plant injury or damage caused by the chemical compositions was carried out using a scale from 0-100% when compared with the untreated control plants. Here, 0 means no damage and 100 means complete destruction of the plants.
(§2) 22., E=X+Y−(X*Y/100), where • X=effect in percent using herbicide A at an application rate of a; • Y=effect in percent using herbicide B at an application rate of b; • E=expected effect (in %) of A+B at application rates a+b.
(§3) The value E corresponds to the effect (plant damage or injury) which is to be expected if the activity of the individual compounds is just additive. If the observed effect is higher than the value E calculated according to Colby, a synergistic effect is present.
Seedlings of Palmer amaranth (Amaranthus palmeri; AMAPA), common waterhemp (Amaranthuis tameriscinus; AMATA), and barnyardgrass (Echinochloa crus-galli; ECHCG) were treated with postemergence applications of either glufosinate at 246 g ai/ha, sulfentrazone at 4.2 or 42 g ai/ha, or the combination of glufosinate (246 g ai/ha) and sulfentrazone (4.2, 42 g ai/ha), respectively, when they were 5-10 cm in height. […]

[2] = system: Amaranthus tamariscinus (AMATA); format: in vivo
Method: as §1, §2, §3
(§4) Seedlings of Palmer amaranth (Amaranthus palmeri; AMAPA), common waterhemp (Amaranthuis tameriscinus; AMATA), and barnyardgrass (Echinochloa crus-galli; ECHCG) were treated with postemergence applications of either glufosinate at 246 g ai/ha, sulfentrazone at 4.2 or 42 g ai/ha, or the combination of glufosinate (246 g ai/ha) and sulfentrazone (4.2, 42 g ai/ha), respectively, when they were 5-10 cm in height. All glufosinate treatments contained 1% (w/v) ammonium sulfate and solo sulfentrazone treatments contained 1% (v/v) MSO surfactant. Plants were placed in a completely randomized design with four replications per treatment. Percent injury data was collected 21 days after treatment (DAT).

[3] = system: Echinochloa crus-galli (ECHCG); format: in vivo
Method: as §1, §2, §3, §4

[4] = read-out: Solo Glufosinate (246 g ai/ha) % activity

Which results are given for `CP(=O)(O)CCC(N)C(=O)O` (racemic) [Glufosinate, (2RS)-2-amino-4-[hydroxy(methyl)phosphinoyl]butyric acid]?
inhibition at 246 g/ha [1, 4]: 79%; inhibition at 246 g/ha [2, 4]: 79%; inhibition at 246 g/ha [3, 4]: 57%

For `Cc1nn(-c2cc(NS(C)(=O)=O)c(Cl)cc2Cl)c(=O)n1C(F)F` [Sulfentrazone, sulfentrazone], which inhibition at 4.2 g/ha ([1]; AMAPA, 4.2 g ai/ha, 1% (v/v) MSO, 21 DAT, 0 = no damage, 100 = complete destruction, read-out: Solo Sulfentrazone (4.2 g ai/ha) % activity) is on record?
The inhibition at 4.2 g/ha was 20%.

What about the inhibition at 42 g/ha ([2]; AMATA, 42 g ai/ha, 1% (v/v) MSO, 21 DAT, read-out: Solo Sulfentrazone (42 g ai/ha) % activity) of the same compound?
The inhibition at 42 g/ha was 33%.

And the inhibition at 42 g/ha ([3]; ECHCG, 42 g ai/ha, 1% (v/v) MSO, 21 DAT, read-out: Solo Sulfentrazone (42 g ai/ha) % activity)?
Its inhibition at 42 g/ha is 23%.
